Earlier results in patent publication US20050266077A1, “Resorbable matrices with coatings for delivery of bioactive compounds” (Royal Biomedical, Inc., priority 2002, published 2005).

Conditions: exothermic reaction, matrix temperatures as high as 100° C

inactivation of antibiotic: inactivated
Substance: polymyxin
